Assay results taken from ChEMBL document CHEMBL1128635, “Structure-activity studies of the natural product substance P antagonist win 64821” (Bioorg Med Chem Lett, 1995).

Target: Substance-P receptor (Homo sapiens, UniProt P25103)
Test: Antagonistic activity against Tachykinin receptor 1
Format: functional

Substance-P receptor, sequence (P25103 whole entry): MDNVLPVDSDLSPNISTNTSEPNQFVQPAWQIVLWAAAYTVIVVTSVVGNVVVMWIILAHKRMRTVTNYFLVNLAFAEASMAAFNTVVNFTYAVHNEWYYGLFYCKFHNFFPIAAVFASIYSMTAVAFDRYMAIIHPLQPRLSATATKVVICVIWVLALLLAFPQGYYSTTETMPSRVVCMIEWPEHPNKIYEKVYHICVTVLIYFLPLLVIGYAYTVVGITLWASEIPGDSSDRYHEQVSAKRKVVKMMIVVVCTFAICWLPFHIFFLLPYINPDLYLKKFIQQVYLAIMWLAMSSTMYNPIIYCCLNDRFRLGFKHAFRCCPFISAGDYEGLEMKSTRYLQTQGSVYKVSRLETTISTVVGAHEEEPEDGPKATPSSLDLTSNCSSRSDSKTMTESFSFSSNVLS

Structure (SMILES)	IC50
O=C1N[C@@H](Cc2ccccc2)C(=O)N2[C@H]3Nc4ccccc4[C@@]3(O)C[C@@H]12	> 100 µM
O=C1N[C@@H](Cc2ccccc2)C(=O)N2[C@H]3Nc4ccccc4C3(C34C[C@H]5C(=O)N[C@@H](Cc6ccccc6)C(=O)N5[C@H]3Nc3ccccc34)C[C@@H]12 (stereo partly drawn)	0.24 µM
Cc1cccc2c1C1(C34C[C@H]5C(=O)N[C@@H](Cc6ccccc6)C(=O)N5[C@H]3Nc3cccc(C)c34)C[C@H]3C(=O)N[C@@H](Cc4ccccc4)C(=O)N3[C@H]1N2 (stereo partly drawn)	5.7 µM
COc1ccc(N)cc1C[C@]12C[C@H]3C(=O)N[C@@H](Cc4ccccc4)C(=O)N3[C@H]1Nc1ccccc12	26 µM
O=C1N[C@@H](Cc2ccccc2)C(=O)N2[C@H]1C[C@@]1(O)c3ccccc3N[C@@H]21	> 100 µM
Cc1cccc2c1C1(C34C[C@H]5C(=O)N[C@@H](Cc6ccccc6)C(=O)N5[C@H]3Nc3ccccc34)C[C@H]3C(=O)N[C@@H](Cc4ccccc4)C(=O)N3[C@H]1N2 (stereo partly drawn)	0.44 µM
O=C1[C@@H]2C[C@@]3(Cc4cc([N+](=O)[O-])ccc4O)c4ccccc4N[C@H]3N2C(=O)[C@H](Cc2ccccc2)N1Cc1cc([N+](=O)[O-])ccc1O	> 100 µM
O=C1[C@@H]2C[C@]3(Cc4cc([N+](=O)[O-])ccc4O)c4ccccc4N[C@@H]3N2C(=O)[C@H](Cc2ccccc2)N1Cc1cc([N+](=O)[O-])ccc1O	> 100 µM

Further lines, results first:

IC50	Structure (SMILES)
98 µM	O=C1N[C@@H](Cc2ccccc2)C(=O)N2[C@H]1C[C@@]1(Cc3cc([N+](=O)[O-])ccc3O)c3ccccc3N[C@@H]21
88 µM	COc1ccc([N+](=O)[O-])cc1C[C@@]12C[C@H]3C(=O)N[C@@H](Cc4ccccc4)C(=O)N3[C@@H]1Nc1ccccc12
38 µM	COc1ccc(N)cc1C[C@@]12C[C@H]3C(=O)N[C@@H](Cc4ccccc4)C(=O)N3[C@@H]1Nc1ccccc12
54 µM	COc1ccc([N+](=O)[O-])cc1C[C@]12C[C@H]3C(=O)N[C@@H](Cc4ccccc4)C(=O)N3[C@H]1Nc1ccccc12
48 µM	O=C1N[C@@H](Cc2ccccc2)C(=O)N2[C@H]3Nc4ccccc4[C@@]3(Cc3cc([N+](=O)[O-])ccc3O)C[C@@H]12
